US20240327393A1 (SIRONAX LTD., priority 2021, published 2024)

What follows are molecules tested on HT-1080 (ATCC, CCL-121) cells (assay: HT-1080 cell viability assay with ferroptosis inducer RSL3 (Cell Titer-Glo)). Settings: Homo sapiens; HT-1080 cells treated with RSL3; 3-fold, 10-point dilution, 1.1 μM highest concentration; Table 2; read-out: EC50 (nM), ferroptosis inhibitory activity.
Format: cell-based
Procedure: Example 2. Determination of EC50 Values in HT-1080 Cell Viability Assay
HT-1080 (ATCC, CCL-121) cells (6000 in 100 μl) were seeded in 96-well plates (Corning) and cultured in a 37° C. incubator with a humidified atmosphere of 5% CO2 for overnight. Cells were then treated with ferroptosis inducer RSL3 (TargetMol) and a 3-fold, 10-point serial dilution series of compounds with 1.1 μM as the highest concentration, […]. Cell viability was assessed using the Cell Titer-Glo Kit (Promega). The luminescence intensity was measured with a microplate reader (Envision, PerkinElmer), and cell viability was calculated by normalizing the data to untreated controls. The EC50 values of the compounds (e.g., Compounds 1-659) were calculated in GraphPad Prism (GraphPad Software, Inc., San Diego, CA, USA). The curves were fitted using a non-linear regression model with a sigmoidal dose response.

EC50 [nM]	SMILES
100 to 1000	Cc1cc(Nc2ccc3c(c2)OCC(=O)N3)cnc1N1C[C@H](C)O[C@@H](C)C1 (stereo in doubt) [Compound 152, 7-((6-(2,6-dimethylmorpholino)-5-methylpyridin-3-yl)amino)-2H-benzo[b][1,4]oxazin-3(4H)-one]
0.1 to 100	CN1C(=O)COc2cc(Nc3ccc(N4CCC(C(F)(F)F)CC4)cc3)ccc21 [Compound 2, 4-methyl-7-((4-(4-(trifluoromethyl)piperidin-1-yl)phenyl)amino)-2H-benzo[b][1,4]oxazin-3(4H)-one]
0.1 to 100	CN1C(=O)CCOc2cc(Nc3ccc(N4CCC(C(F)(F)F)CC4)cc3)ccc21 [Compound 3, 5-methyl-8-((4-(4-(trifluoromethyl)piperidin-1-yl)phenyl)amino)-2,3-dihydrobenzo[b][1,4]oxazepin-4(5H)-one]
0.1 to 100	CCCCCN(CCCCOC)c1ccc(Nc2ccc3c(c2)OCC(=O)N3C)cc1 [Compound 4, 7-((4-((4-methoxybutyl)(pentyl)amino)phenyl)amino)-4-methyl-2H-benzo[b][1,4]oxazin-3(4H)-one]
0.1 to 100	CCCCCc1ccc(Nc2ccc3c(c2)OCC(=O)N3C)cc1 [Compound 6, 4-methyl-7-((4-pentylphenyl)amino)-2H-benzo[b][1,4]oxazin-3(4H)-one]
0.1 to 100	CN1C(=O)COc2cc(Nc3ccc(OC4CCCCC4)cc3)ccc21 [Compound 7, 7-((4-(cyclohexyloxy)phenyl)amino)-4-methyl-2H-benzo[b][1,4]oxazin-3(4H)-one]
0.1 to 100	CCCOc1cc(Nc2ccc3c(c2)OCC(=O)N3C)ccc1N1CCC(C(F)(F)F)CC1 [Compound 8, 4-methyl-7-((3-propoxy-4-(4-(trifluoromethyl)piperidin-1-yl)phenyl)amino)-2H-benzo[b][1,4]oxazin-3(4H)-one]
0.1 to 100	COC1(C(F)(F)F)CCN(c2ccc(Nc3ccc4c(c3)OCC(=O)N4C)cc2)CC1 [Compound 9, 7-((4-(4-methoxy-4-(trifluoromethyl)piperidin-1-yl)phenyl)amino)-4-methyl-2H-benzo[b][1,4]oxazin-3(4H)-one]
0.1 to 100	COCCCN1C(=O)COc2cc(Nc3ccc(N4CCC(C(F)(F)F)CC4)cc3)ccc21 [Compound 10, 4-(3-methoxypropyl)-7-((4-(4-(trifluoromethyl)piperidin-1-yl)phenyl)amino)-2H-benzo[b][1,4]oxazin-3(4H)-one]
0.1 to 100	COCCN1C(=O)COc2cc(Nc3ccc(N4CCC(C(F)(F)F)CC4)cc3)ccc21 [Compound 11, 4-(2-methoxyethyl)-7-((4-(4-(trifluoromethyl)piperidin-1-yl)phenyl)amino)-2H-benzo[b][1,4]oxazin-3(4H)-one]
0.1 to 100	CN1C(=O)COc2cc(Nc3ccc(OCCCF)cc3)ccc21 [Compound 13, 7-((4-(3-fluoropropoxy)phenyl)amino)-4-methyl-2H-benzo[b][1,4]oxazin-3(4H)-one]
0.1 to 100	NC(=O)CN1C(=O)COc2cc(Nc3ccc(N4CCC(C(F)(F)F)CC4)cc3)ccc21 [Compound 14, 2-(3-oxo-7-((4-(4-(trifluoromethyl)piperidin-1-yl)phenyl)amino)-2,3-dihydro-4H-benzo[b][1,4]oxazin-4-yl)acetamide]

SMILES	EC50 [nM]
CC1CCN(c2ccc(Nc3ccc4c(c3)OCC(=O)N4C)cc2)CC1 [Compound 1, 4-methyl-7-((4-(4-methylpiperidin-1-yl)phenyl)amino)-2H-benzo[b][1,4]oxazin-3(4H)-one]	0.1 to 100
CCCCOc1ccc(Nc2ccc3c(c2)OCC(=O)N3C)cc1 [Compound 5, 7-((4-butoxyphenyl)amino)-4-methyl-2H-benzo[b][1,4]oxazin-3(4H)-one]	0.1 to 100
CCCCOc1ccc(Nc2ccc3c(c2)OCC(=O)N3C)cn1 [Compound 12, 7-((6-butoxypyridin-3-yl)amino)-4-methyl-2H-benzo[b][1,4]oxazin-3(4H)-one]	0.1 to 100
